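1) Cells in 96-well plates. 2) Compound, 48 h, 5 concentrations. 3) Linear interpolation between surrounding doses. 4) Unreached endpoint = highest concentration. Abbreviation: GI50, concentration required for 50% inhibition of growth.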 The source made the active and inactive calls. No stated cut-off is given here; in the data, active = GI50 up to about 1.1 µM and inactive = higher. A value given as a limit tells only on which side of the number the result lay.

Results on 13 molecules are retold here after ChEMBL document CHEMBL1201862, “PubChem BioAssay data set” (2004).

Assay in all cases: inhibition of tumour cell growth, NCI panel, 48 h
Test [1] deals with HL-60.
Test [2] deals with SNB-19.
For test [3], the system named is SF-539.
The subject of test [4] is HOP-92.
The subject of test [5] is SF-268.
In test [6] the test system is ACHN.
For test [7], the system named is Malme-3M.
Test [8] relates to SN12C.
Test [9] deals with RPMI-8226.
Test [10] has as its system K562.
Test [11] deals with SW-620.
Test [12] relates to CAKI-1.
Test [13] relates to LOX IMVI.
The subject of test [14] is SK-MEL-2.
The subject of test [15] is SK-MEL-5.
Test [16] concerns MDA-MB-231.
Test [17] concerns NCI/ADR-RES.
The subject of test [18] is Hs-578T.
The subject of test [19] is PC-3.

As for `Cc1ccc(NC(=O)CC2SC(=N)NC2=O)cc1C` (centres undefined), the GI50 in [1], in test [2], in [3], in test [4], in test [5] and in test [6] was > 100 µM (inactive) each time. Further, the GI50 in [7], in test [8], in [9], in test [10], in test [11] and in test [12] was > 100 µM (inactive) each time. In addition, the GI50 in test [13] and in [14] was > 100 µM (inactive) each time.
Regarding `O=C(CO[N+](=O)[O-])OC/C=C/c1ccccc1`, the GI50 is 22.1 µM (inactive) in test [1]; > 100 µM (inactive) in [2]; > 100 µM (inactive) in [3]; > 100 µM (inactive) in test [4]; > 100 µM (inactive) in test [5]; > 100 µM (inactive) in test [6]. Besides, the GI50 in [7], in test [8], in [9], in test [10], in test [11] and in test [12] was > 100 µM (inactive) in each case. The GI50 in test [13] and in test [14] was > 100 µM (inactive) each time.
As to `CN(C)/C=N/c1nc2ncn(CCOC(=O)c3ccccc3)c2c(=O)[nH]1`, the GI50 in [1], in test [3], in test [4], in test [5], in test [6] and in test [7] was > 100 µM (inactive) each time. The GI50 in test [8], in test [15], in [9], in [10], in test [11] and in test [12] was > 100 µM (inactive) each time. The GI50 in test [13] and in test [14] was > 100 µM (inactive) in each case.
Regarding `Brc1ccc(N2C[N+](c3ccc(Br)cc3)=NC(c3ccccc3)=N2)cc1`, the GI50 was 17.1 µM (inactive) in test [1]; 17.3 µM (inactive) in test [2]; 15.8 µM (inactive) in test [3]; 18.7 µM (inactive) in [4]; 18.3 µM (inactive) in [5]; 13.6 µM (inactive) in [6]. For the same molecule, the GI50 in test [7] was 16.7 µM (inactive); in [8] it was 19 µM (inactive); in [15], 16 µM (inactive); in [9], 9.35 µM (inactive); in [10] it was 10.9 µM (inactive); in test [11] it was 20.9 µM (inactive). Besides, the GI50 is 18.1 µM (inactive) in test [12] and 17 µM (inactive) in test [14].
Turning to `N#CC(C#N)=c1[nH]c2cccc3c2-c2c(cccc2c3=C(C#N)C#N)[nH]1`, the GI50 in test [1], in [2], in [3], in test [4], in test [5] and in [7] was > 100 µM (inactive) throughout. The GI50 in test [8], in [15], in test [9], in test [10], in [11] and in [12] was > 100 µM (inactive) throughout. For the same molecule, the GI50 in test [13] is > 100 µM (inactive).
In the case of `Cc1nnc(N/N=C2/C(=O)Nc3c(Cl)cc(Cl)cc32)n1N`, the GI50 in test [1], in [2], in test [3], in test [4], in test [5] and in [6] was > 100 µM (inactive) in each case. For the same molecule, the GI50 in [7] is > 100 µM (inactive); in [8], > 100 µM (inactive); in test [9], > 100 µM (inactive); in test [10], > 100 µM (inactive); in [11] it was > 100 µM (inactive); in test [12], 81.1 µM (inactive). For the same molecule, the GI50 in test [13] and in [14] was > 100 µM (inactive) throughout.
Regarding `CCOC(=O)/C(=C\NC(=S)Nc1ccc(Cl)c(Cl)c1)C(=O)c1ccccc1`, the GI50 was 25.9 µM (inactive) in test [16]; 22.8 µM (inactive) in [1]; 3.12 µM (inactive) in [3]; 33 µM (inactive) in [17]; 26.6 µM (inactive) in [5]; 18.2 µM (inactive) in test [6]. Besides, the GI50 in test [7] is 63.5 µM (inactive); in test [8] it was 46.5 µM (inactive); in test [15], 27.1 µM (inactive); in [9], 5.12 µM (inactive); in test [10], 10 µM (inactive); in test [18] it was 2.11 µM (inactive). For the same molecule, the GI50 is 39.2 µM (inactive) in [11]; 12.9 µM (inactive) in [12]; 21.5 µM (inactive) in test [19]; 69.7 µM (inactive) in test [13]; 21.7 µM (inactive) in test [14].
Take `CN(C)/C=C1\CCc2ccc([N+](=O)[O-])cc2C1=O`: the GI50 in [16] was 17.4 µM (inactive); in test [1], 25.7 µM (inactive); in test [2], > 100 µM (inactive); in test [17], 75 µM (inactive); in [5], > 100 µM (inactive); in test [6], > 100 µM (inactive). For the same molecule, the GI50 in [7] is 33 µM (inactive); in test [8], 18.3 µM (inactive); in test [15], 92.9 µM (inactive); in test [9], 27.4 µM (inactive); in test [10], 24.4 µM (inactive); in [18], > 100 µM (inactive). Moreover, the GI50 in [11] is 32.1 µM (inactive); in test [12], > 100 µM (inactive); in [19], 30.6 µM (inactive); in test [13] it was 19.6 µM (inactive); in test [14] it was > 100 µM (inactive).
Take `CN(C)CCNC(=O)Cn1ccc(=O)c2cc([N+](=O)[O-])ccc21`: the GI50 in test [1], in [2], in [3], in [17], in test [4] and in test [5] was > 100 µM (inactive) each time. The GI50 in test [6], in [7], in [8], in [15], in test [9] and in test [10] was > 100 µM (inactive) throughout. In addition, the GI50 in test [18], in test [11], in test [12], in test [19], in [13] and in test [14] was > 100 µM (inactive) each time.
For the molecule `CC(=O)NC(C=O)C(O[C@H](C)C(=O)NC(C)C(=O)NC(CCC(N)=O)C(=O)OCc1ccccc1)C(O)C(O)COC(=O)CCNc1c2ccccc2nc2cccc([N+](=O)[O-])c12` (some centres undefined), the GI50 was 11.5 µM (inactive) in [1]; 4.49 µM (inactive) in test [2]; 6.12 µM (inactive) in test [3]; 2.31 µM (inactive) in test [4]; 1.79 µM (inactive) in test [5]; 2.94 µM (inactive) in [6]. Besides, the GI50 in [7] is 2.15 µM (inactive); in test [8], 2.02 µM (inactive); in test [15], > 100 µM (inactive); in test [9], 1.63 µM (inactive); in test [10] it was 2.51 µM (inactive); in test [11] it was 1.99 µM (inactive). The results for the GI50 in test [12], in test [13] and in [14] were 1.45 µM (inactive), 14.6 µM (inactive) and 1.63 µM (inactive), respectively.
`O=S(=O)(O)SC/C=C\CSS(=O)(=O)O`: the GI50 in test [1] is > 100 µM (inactive); in [2], 42.4 µM (inactive); in [3], 66.2 µM (inactive); in [4], > 100 µM (inactive); in test [5] it was 48.9 µM (inactive); in [6], > 100 µM (inactive). Also, the GI50 in test [7], in [8], in test [15], in test [9], in test [10] and in test [11] was > 100 µM (inactive) in each case. Besides, the GI50 in test [12] was > 100 µM (inactive); in test [13], 24.8 µM (inactive).
As to `COc1ccc(CCC2c3cc(OC)c(OC)cc3CCN2C)cc1OC` (centres undefined), the GI50 in [1] is > 100 µM (inactive); in [2], > 100 µM (inactive); in test [3] it was > 100 µM (inactive); in test [4], 46 µM (inactive); in [5], > 100 µM (inactive); in test [6], > 100 µM (inactive). Also, the GI50 in test [7], in test [8], in [15], in test [9], in test [10] and in [11] was > 100 µM (inactive) in each case. The GI50 in test [12], in [13] and in [14] was > 100 µM (inactive) in each case.
With `CC1C=C(CCCCCCCCCCCC[C@@H](O)[C@@H]2CC[C@@H]([C@@H]3CC[C@@H](C(O)CCCCCCCCCCCCC4=C[C@H](C)OC4=O)O3)O2)C(=O)O1` (some centres undefined), the GI50 in test [1] is 5.41 µM (inactive); in [2], > 42.5 µM (inactive); in test [3], 3.23 µM (inactive); in [4] it was 21.9 µM (inactive); in test [5], > 47.5 µM (inactive); in test [6], > 100 µM (inactive). Moreover, the GI50 is > 91.2 µM (inactive) in test [7]; > 100 µM (inactive) in test [8]; 0.0783 µM (active) in [15]; 0.518 µM (active) in [9]; 0.993 µM (active) in [10]; > 57.3 µM (inactive) in [11]. Moreover, the results for the GI50 in [12], in test [13] and in test [14] were > 100 µM (inactive), 12.2 µM (inactive) and > 100 µM (inactive), respectively.
